The target of test [1] is T1, FGFR3 enzyme (Millipore) (Homo sapiens (Human), UniProt P22607). Nature of the test: biochemical.
Protocol: (§1) The inhibitor potency of compounds was measured in an enzyme assay that measures peptide phosphorylation using FRET measurements to detect product formation. Inhibitors were serially diluted in DMSO and a volume of 0.5 μL was transferred to the wells of a 384-well plate. For FGFR3, a 10 μL volume of FGFR3 enzyme (Millipore) diluted in assay buffer (50 mM HEPES, 10 mM MgCl2, 1 mM EGTA, 0.01% Tween-20, 5 mM DTT, pH 7.5) was added to the plate and pre-incubated for 5-10 minutes. Appropriate controls (enzyme blank and enzyme with no inhibitor) were included on the plate. […] The plate was incubated at 25° C. for 1 hr. […] The plate was allowed to equilibrate for ˜1 hr before scanning the wells on a PheraStar plate reader.
(§2) GraphPad prism3 was used to analyze the data. The IC50 values were derived by fitting the data to the equation for a sigmoidal dose-response with a variable slope. Y=Bottom+(Top−Bottom)/(1+10^((Log IC50−X)*HillSlope)) where X is the logarithm of concentration and Y is the response.
The next test concerns the target FGFR2 (Homo sapiens (Human), UniProt P21802). Nature of the test: FGFR Enzymatic Assay (FGFR2).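 Note: FRET read-out of peptide phosphorylation by the purified kinase, with enzyme-free blank and uninhibited enzyme as controls, potency from a variable-slope sigmoidal dose-response fit.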 Type of test: biochemical.
For the next test, the target named is FGFR1 (Homo sapiens (Human), UniProt P11362). The test can be described thus: FGFR Enzymatic Assay (FGFR1). Type of test: biochemical. To be noted: enzyme 0.02 nM, ATP 210 μM.
Test [2] has as its target T1, FGFR3 enzyme (Millipore). The following applies: read-out: FGFR3 IC50, ATP 140 μM.
Protocol: as §1, §2
The mark [3] stands for this setting: enzyme 0.01 nM, ATP 100 μM, read-out: FGFR2 IC50.

Read-outs that look alike come from different tables or passages of the source.

Sequence of FGFR2 (P21802 22-821): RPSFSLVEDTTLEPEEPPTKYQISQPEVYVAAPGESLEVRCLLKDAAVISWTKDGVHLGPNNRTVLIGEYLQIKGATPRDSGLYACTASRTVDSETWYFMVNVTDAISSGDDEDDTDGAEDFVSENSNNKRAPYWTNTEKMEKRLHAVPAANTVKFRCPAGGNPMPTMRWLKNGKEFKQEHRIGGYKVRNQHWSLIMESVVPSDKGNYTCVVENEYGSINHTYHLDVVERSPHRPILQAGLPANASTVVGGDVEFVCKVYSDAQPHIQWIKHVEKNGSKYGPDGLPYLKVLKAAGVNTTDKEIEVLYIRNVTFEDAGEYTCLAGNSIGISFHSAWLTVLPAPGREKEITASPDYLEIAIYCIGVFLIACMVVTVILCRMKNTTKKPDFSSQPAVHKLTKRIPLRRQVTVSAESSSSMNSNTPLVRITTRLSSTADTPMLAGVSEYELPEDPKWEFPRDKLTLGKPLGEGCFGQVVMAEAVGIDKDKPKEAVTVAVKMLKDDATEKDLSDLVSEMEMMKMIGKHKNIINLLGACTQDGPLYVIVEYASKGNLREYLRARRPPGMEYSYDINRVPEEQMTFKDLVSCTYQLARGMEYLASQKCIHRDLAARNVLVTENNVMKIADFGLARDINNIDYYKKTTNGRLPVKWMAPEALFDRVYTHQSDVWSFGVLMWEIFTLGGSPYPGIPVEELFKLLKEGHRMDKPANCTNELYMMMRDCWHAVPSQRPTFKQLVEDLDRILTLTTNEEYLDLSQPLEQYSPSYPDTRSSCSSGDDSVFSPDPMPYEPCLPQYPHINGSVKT
T1 sequence (P22607 23-806): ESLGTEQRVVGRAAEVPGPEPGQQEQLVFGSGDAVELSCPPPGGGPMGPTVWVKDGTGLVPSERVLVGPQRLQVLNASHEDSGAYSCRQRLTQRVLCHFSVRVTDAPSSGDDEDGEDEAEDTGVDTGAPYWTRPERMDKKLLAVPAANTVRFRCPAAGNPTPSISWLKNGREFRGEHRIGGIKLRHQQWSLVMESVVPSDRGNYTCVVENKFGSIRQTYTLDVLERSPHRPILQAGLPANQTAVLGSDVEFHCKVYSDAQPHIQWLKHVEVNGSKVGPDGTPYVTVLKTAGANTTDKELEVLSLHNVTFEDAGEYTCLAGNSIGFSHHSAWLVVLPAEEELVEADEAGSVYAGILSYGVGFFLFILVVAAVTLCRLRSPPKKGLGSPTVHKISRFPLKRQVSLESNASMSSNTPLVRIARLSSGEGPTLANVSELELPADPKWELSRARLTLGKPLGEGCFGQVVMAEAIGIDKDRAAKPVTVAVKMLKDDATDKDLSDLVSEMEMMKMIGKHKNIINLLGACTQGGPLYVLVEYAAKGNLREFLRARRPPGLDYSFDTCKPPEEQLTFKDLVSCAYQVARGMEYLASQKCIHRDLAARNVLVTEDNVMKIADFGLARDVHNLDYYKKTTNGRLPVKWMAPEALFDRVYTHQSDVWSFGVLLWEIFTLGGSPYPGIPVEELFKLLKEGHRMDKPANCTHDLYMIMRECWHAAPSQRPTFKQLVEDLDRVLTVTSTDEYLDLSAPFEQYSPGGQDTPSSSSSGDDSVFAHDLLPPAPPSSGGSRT
Sequence of FGFR1 (P11362 22-822): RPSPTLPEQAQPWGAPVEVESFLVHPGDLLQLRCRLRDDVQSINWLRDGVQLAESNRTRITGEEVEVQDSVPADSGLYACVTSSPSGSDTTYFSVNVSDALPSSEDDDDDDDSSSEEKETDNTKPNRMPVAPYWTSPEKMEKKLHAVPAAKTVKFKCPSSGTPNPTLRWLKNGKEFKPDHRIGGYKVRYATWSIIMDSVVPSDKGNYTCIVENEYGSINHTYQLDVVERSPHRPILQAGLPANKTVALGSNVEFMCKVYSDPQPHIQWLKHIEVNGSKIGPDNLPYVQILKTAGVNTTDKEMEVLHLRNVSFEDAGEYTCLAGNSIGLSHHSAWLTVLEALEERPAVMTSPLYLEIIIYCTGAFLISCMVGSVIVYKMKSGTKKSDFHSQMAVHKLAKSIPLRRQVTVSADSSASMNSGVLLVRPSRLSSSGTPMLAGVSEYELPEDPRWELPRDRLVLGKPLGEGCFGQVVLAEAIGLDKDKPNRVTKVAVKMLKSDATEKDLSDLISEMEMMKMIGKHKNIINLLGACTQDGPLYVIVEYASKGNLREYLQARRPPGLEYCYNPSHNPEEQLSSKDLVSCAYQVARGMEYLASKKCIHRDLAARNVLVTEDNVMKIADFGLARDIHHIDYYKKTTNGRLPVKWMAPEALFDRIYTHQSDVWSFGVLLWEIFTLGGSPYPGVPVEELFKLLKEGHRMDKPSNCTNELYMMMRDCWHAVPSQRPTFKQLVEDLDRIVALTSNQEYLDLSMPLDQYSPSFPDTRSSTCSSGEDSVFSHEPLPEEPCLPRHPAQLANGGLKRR
Protocol for FGFR1: as §1, §2
Protocol for FGFR2: as §1, §2

For orientation: IC50 means the concentration needed to halve the response being measured. Consider `COc1cc(CCc2cnc3[nH]c(-c4c(F)cccc4F)cc3n2)cc(OC)c1` [Example 4, 6-(2,6-difluorophenyl)-2-(3,5-dimethoxyphenethyl)-5H-pyrrolo[2,3-b]pyrazine], for which the values for the IC50 against FGFR3 enzyme (Millipore) [1], at FGFR2 and on FGFR1 were 500 to 2700 nM, 100 to 500 nM and less than 100 nM, respectively.
Turning to `COc1cc(CCc2cnc3[nH]c(-c4ccc(NC(C)=O)cc4)cc3n2)cc(OC)c1` [Example 6, N-(4-{2-[2-(3,5-dimethoxyphenyl)ethyl]-5H-pyrrolo[2,3-b]pyrazin-6-yl}phenyl)acetamide], the figures for the IC50 on FGFR3 enzyme (Millipore) [1], on FGFR2 (setting [3]) and at FGFR1 were 100 to 500 nM, less than 100 nM and less than 100 nM, respectively.
With `COc1cc(CCc2cnc3[nH]c(-c4ccc(C(=O)N(C)C)cc4)cc3n2)cc(OC)c1` [Example 7, 4-{2-[2-(3,5-dimethoxyphenyl)ethyl]-5H-pyrrolo[2,3-b]pyrazin-6-yl}-N,N-dimethylbenzamide], the IC50 at FGFR3 enzyme (Millipore) [1] is 100 to 500 nM; at FGFR2 (setting [3]), less than 100 nM; at FGFR1 it was less than 100 nM.
`COc1cc(CCc2cnc3[nH]c(-c4ccc(C(F)(F)F)cc4)cc3n2)cc(OC)c1` [Example 8, 2-[2-(3,5-dimethoxyphenyl)ethyl]-6-[4-(trifluoromethyl)phenyl]-5H-pyrrolo[2,3-b]pyrazine]: the IC50 on FGFR3 enzyme (Millipore) [1] is 100 to 500 nM; on FGFR2 it was 100 to 500 nM; against FGFR1, less than 100 nM.
`COc1cc(CCc2cnc3[nH]c(-c4ccccc4C)cc3n2)cc(OC)c1` [Example 9, 2-[2-(3,5-dimethoxyphenyl)ethyl]-6-(2-methylphenyl)-5H-pyrrolo[2,3-b]pyrazine]: the IC50 on FGFR3 enzyme (Millipore) [1] was 500 to 2700 nM; at FGFR2, 100 to 500 nM; at FGFR1, less than 100 nM.
As for `COc1cc(CCc2cnc3[nH]c(-c4ccccc4C#N)cc3n2)cc(OC)c1` [Example 10, 2-{2-[2-(3,5-dimethoxyphenyl)ethyl]-5H-pyrrolo[2,3-b]pyrazin-6-yl}benzonitrile], the IC50 against FGFR3 enzyme (Millipore) [1] was 500 to 2700 nM; on FGFR2 (setting [3]), less than 100 nM; against FGFR1, less than 100 nM.
`COc1cc(CCc2cnc3[nH]c(-c4ccc(CC#N)cc4)cc3n2)cc(OC)c1` [Example 14, (4-{2-[2-(3,5-dimethoxyphenyl)ethyl]-5H-pyrrolo[2,3-b]pyrazin-6-yl}phenyl)acetonitrile]: the IC50 is 100 to 500 nM on FGFR3 enzyme (Millipore) [1], less than 100 nM on FGFR2 (setting [3]) and less than 100 nM against FGFR1.
Take `COc1cc(CCc2cnc3[nH]c(-c4ccc(N5CCN(C)CC5)nc4)cc3n2)cc(OC)c1` [Example 16, 2-[2-(3,5-dimethoxyphenyl)ethyl]-6-[6-(4-methylpiperazin-1-yl)pyridin-3-yl]-5H-pyrrolo[2,3-b]pyrazine]: the IC50 against FGFR3 enzyme (Millipore) [1] is 100 to 500 nM; on FGFR2 (setting [3]) it was less than 100 nM; on FGFR1, less than 100 nM.
For the compound `CNC(=O)c1ccc(-c2cc3nc(CCc4cc(OC)cc(OC)c4)cnc3[nH]2)cn1` [Example 17, 5-{2-[2-(3,5-dimethoxyphenyl)ethyl]-5H-pyrrolo[2,3-b]pyrazin-6-yl}-N-methylpyridine-2-carboxamide], the results for the IC50 at FGFR3 enzyme (Millipore) [1], on FGFR2 (setting [3]) and against FGFR1 were 100 to 500 nM, less than 100 nM and less than 100 nM, respectively.
As to `COc1cc(CCc2cnc3[nH]c(-c4cncc(C(=O)N5CCOCC5)c4)cc3n2)cc(OC)c1` [Example 18, 2-[2-(3,5-dimethoxyphenyl)ethyl]-6-[5-(morpholin-4-ylcarbonyl)pyridin-3-yl]-5H-pyrrolo[2,3-b]pyrazine], the IC50 against FGFR3 enzyme (Millipore) [1] is 500 to 2700 nM; on FGFR2 (setting [3]) it was less than 100 nM; on FGFR1 it was less than 100 nM.
Regarding `COc1cc(CCc2cnc3[nH]c(C4=CCN(C)CC4)cc3n2)cc(OC)c1` [Example 23, 2-[2-(3,5-dimethoxyphenyl)ethyl]-6-(1-methyl-1,2,3,6-tetrahydropyridin-4-yl)-5H-pyrrolo[2,3-b]pyrazine], the IC50 is 100 to 500 nM on FGFR3 enzyme (Millipore) [1], less than 100 nM at FGFR2 (setting [3]) and less than 100 nM at FGFR1.
On to `COc1cc(CCc2cnc3[nH]c(-c4cn[nH]c4)cc3n2)cc(OC)c1` [Example 29, 2-[2-(3,5-dimethoxyphenyl)ethyl]-6-(1H-pyrazol-4-yl)-5H-pyrrolo[2,3-b]pyrazine], for which the half-inhibitory concentration (IC50) is 100 to 500 nM on FGFR3 enzyme (Millipore) [1], less than 100 nM at FGFR2 (setting [3]) and less than 100 nM on FGFR1.
For the compound `COc1cc(CCc2cnc3[nH]c(-c4cnn(C)c4)cc3n2)cc(OC)c1` [Example 30, 2-[2-(3,5-dimethoxyphenyl)ethyl]-6-(1-methyl-1H-pyrazol-4-yl)-5H-pyrrolo[2,3-b]pyrazine], the IC50 was 100 to 500 nM against FGFR3 enzyme (Millipore) [1], less than 100 nM at FGFR2 (setting [3]) and less than 100 nM against FGFR1.
`COc1cc(CCc2cnc3[nH]c(-c4cnn(C5CCN(C)CC5)c4)cc3n2)cc(OC)c1` [Example 37, 2-[2-(3,5-dimethoxyphenyl)ethyl]-6-[1-(1-methylpiperidin-4-yl)-1H-pyrazol-4-yl]-5H-pyrrolo[2,3-b]pyrazine]: the IC50 at FGFR3 enzyme (Millipore) [1] is 100 to 500 nM; on FGFR2 (setting [3]), less than 100 nM; against FGFR1, less than 100 nM.
Consider `COc1cc(CCc2cnc3[nH]c(-c4cnn(CCO)c4)cc3n2)cc(OC)c1` [Example 38, 2-(4-{2-[2-(3,5-dimethoxyphenyl)ethyl]-5H-pyrrolo[2,3-b]pyrazin-6-yl}-1H-pyrazol-1-yl)ethanol], for which the IC50 at FGFR3 enzyme (Millipore) [1] was 100 to 500 nM; on FGFR2 (setting [3]), less than 100 nM; against FGFR1 it was less than 100 nM.
As for `COc1cc(CCc2cnc3[nH]c(-c4cnn(CCN5CCN(C)CC5)c4)cc3n2)cc(OC)c1` [Example 42, 2-[2-(3,5-dimethoxyphenyl)ethyl]-6-{1-[2-(4-methylpiperazin-1-yl)ethyl]-1H-pyrazol-4-yl}-5H-pyrrolo[2,3-b]pyrazine], the IC50 was 100 to 500 nM at FGFR3 enzyme (Millipore) [1], less than 100 nM on FGFR2 (setting [3]) and less than 100 nM at FGFR1.
Consider `COc1cc(CCc2cnc3[nH]c(-c4cnn(CC(=O)N(C)C)c4)cc3n2)cc(OC)c1` [Example 43, 2-(4-{2-[2-(3,5-dimethoxyphenyl)ethyl]-5H-pyrrolo[2,3-b]pyrazin-6-yl}-1H-pyrazol-1-yl)-N,N-dimethylacetamide], for which the IC50 on FGFR3 enzyme (Millipore) [1] was 100 to 500 nM; on FGFR2 (setting [3]) it was less than 100 nM; at FGFR1 it was less than 100 nM.
Consider `CNC(=O)c1c(-c2ccc(N3CCN(C)CC3)cc2)[nH]c2ncc(CCc3cc(OC)cc(OC)c3)nc12` [Example 50, 2-[2-(3,5-dimethoxyphenyl)ethyl]-N-methyl-6-[4-(4-methylpiperazin-1-yl)phenyl]-5H-pyrrolo[2,3-b]pyrazine-7-carboxamide], for which the IC50 against FGFR3 enzyme (Millipore) [1] is 500 to 2700 nM; at FGFR2 (setting [3]), less than 100 nM; against FGFR1 it was less than 100 nM.
`COc1cc(CCc2cnc3[nH]c(-c4ccc(F)c(C(=O)N(C)C)c4)cc3n2)cc(OC)c1` [Example 54, 5-(2-(3,5-Dimethoxyphenethyl)-5H-pyrrolo[2,3-b]pyrazin-6-yl)-2-fluoro-N,N-dimethylbenzamide]: the IC50 against FGFR3 enzyme (Millipore) [1] was 100 to 500 nM; at FGFR2 (setting [3]), less than 100 nM; at FGFR1 it was less than 100 nM.
Take `COc1cc(CCc2cnc3[nH]c(-c4ccnc(N5CCN(C)CC5)c4)cc3n2)cc(OC)c1` [Example 55, 2-(3,5-Dimethoxyphenethyl)-6-(2-(4-methylpiperazin-1-yl)pyridin-4-yl)-5H-pyrrolo[2,3-b]pyrazine]: the IC50 on FGFR3 enzyme (Millipore) [1] was 100 to 500 nM; on FGFR2 (setting [3]), less than 100 nM; on FGFR1, less than 100 nM.
For the compound `COc1cc(CCc2cnc3[nH]c(-c4cnc(N)nc4)cc3n2)cc(OC)c1` [Example 58, 5-(2-(3,5-Dimethoxyphenethyl)-5H-pyrrolo[2,3-b]pyrazin-6-yl)pyrimidin-2-amine], the IC50 is 100 to 500 nM against FGFR3 enzyme (Millipore) [1], less than 100 nM on FGFR2 (setting [3]) and less than 100 nM against FGFR1.
In the case of `COc1cc(CCc2cnc3[nH]c(-c4ccc(C(=O)N(C)C)nc4)cc3n2)cc(OC)c1` [Example 59, 5-(2-(3,5-Dimethoxyphenethyl)-5H-pyrrolo[2,3-b]pyrazin-6-yl)-N,N-dimethylpicolinamide], the IC50 on FGFR3 enzyme (Millipore) [1] is 100 to 500 nM; at FGFR2 (setting [3]) it was less than 100 nM; at FGFR1, less than 100 nM.
With `COc1cc(CCc2cnc3[nH]c(-c4ccnc(C#N)c4)cc3n2)cc(OC)c1` [Example 60, 4-(2-(3,5-Dimethoxyphenethyl)-5H-pyrrolo[2,3-b]pyrazin-6-yl)picolinonitrile], the figures for the IC50 at FGFR3 enzyme (Millipore) [1], at FGFR2 (setting [3]) and against FGFR1 were 100 to 500 nM, less than 100 nM and less than 100 nM, respectively.
Take `COc1cc(CCc2cnc3[nH]c(-c4ccc(OC)nc4)cc3n2)cc(OC)c1` [Example 61, 2-(3,5-Dimethoxyphenethyl)-6-(6-methoxypyridin-3-yl)-5H-pyrrolo[2,3-b]pyrazine]: the IC50 at FGFR3 enzyme (Millipore) [1] was 100 to 500 nM; on FGFR2 (setting [3]), less than 100 nM; against FGFR1, less than 100 nM.
Regarding `COc1cc(CCc2cnc3[nH]c(-c4ccc5cnn(C)c5c4)cc3n2)cc(OC)c1` [Example 63, 2-(3,5-Dimethoxyphenethyl)-6-(1-methyl-1H-indazol-6-yl)-5H-pyrrolo[2,3-b]pyrazine], the values for the IC50 on FGFR3 enzyme (Millipore) [1], at FGFR2 (setting [3]) and on FGFR1 were 100 to 500 nM, less than 100 nM and less than 100 nM, respectively.
Regarding `COc1cc(OC)c(F)c(CCc2cnc3[nH]c(-c4cnn(CC(C)(C)O)c4)cc3n2)c1F` [Example 88, 1-(4-(2-(2,6-difluoro-3,5-dimethoxyphenethyl)-5H-pyrrolo[2,3-b]pyrazin-6-yl)-1H-pyrazol-1-yl)-2-methylpropan-2-ol], the half-maximal inhibitory concentration (IC50) on FGFR2 (setting [3]), at FGFR3 enzyme (Millipore) [2] (class symbols) and against FGFR1 was less than 100 nM throughout.
With `CNC(=O)c1cc2nc(CCc3c(F)c(OC)cc(OC)c3F)cnc2[nH]1` [Example 89, 2-(2,6-difluoro-3,5-dimethoxyphenethyl)-N-methyl-5H-pyrrolo[2,3-b]pyrazine-6-carboxamide], the values for the IC50 on FGFR2 (setting [3]), on FGFR3 enzyme (Millipore) [2] (numeric bounds) and at FGFR1 were less than 100 nM, greater than 400 nM and less than 100 nM, respectively.

The values are drawn from patent publication US9745311B2, “Substituted pyrrolo[2,3-b]pyrazines as FGFR inhibitors” (Incyte Corporation, priority 2012, dated 2017).
